Measured values from the supplement of paper PMC11451515.

Tests used:
Experiment in all cases: AUC of viability dose-response curve (% viability x log10 dose units); higher = less sensitive
Conditions in all cases: 48 h
[1] = system: P12-Ichikawa
Method in brief: (§1)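 Leukemia cells adapted to each medium were seeded in 1536-well plates (500 or 1000 cells/well) and given library compounds in DMSO for 48 h at 37°C. The 11 threefold doses spanned 47 μM to 0.79 nM, and CellTiter-Glo One luminescence was normalised per plate to DMSO and cell-free wells before four-parameter log-logistic fitting on log10 dose. Area under the curve was integrated with the trapezoidal rule, scaling curves above full viability and removing curves that failed quality control.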

[2] = system: NOMO1
Method in brief: as §1

[3] = system: SEM cells
Method in brief: as §1

[4] = RPMI 5 mM glucose + 10% dialyzed FBS

Row | SMILES | AUC of viability dose-response curve ([1]; HPLM + 10% dialyzed FBS) | AUC of viability dose-response curve ([1]; RPMI 5 mM glucose + 10% FBS) | AUC of viability dose-response curve [1, 4] | AUC of viability dose-response curve ([2]; HPLM + 10% dialyzed FBS) | AUC of viability dose-response curve ([2]; RPMI 5 mM glucose + 10% FBS) | AUC of viability dose-response curve [2, 4] | AUC of viability dose-response curve ([3]; HPLM + 10% dialyzed FBS) | AUC of viability dose-response curve ([3]; RPMI 5 mM glucose + 10% FBS) | AUC of viability dose-response curve [3, 4]
1 | COC1=CC=C2CN(C)CC[C@@]34\C=C/[C@H](O)C[C@@H]3OC1=C24 | 449 | 456 | 454 | 437 | 468 | 451 | – | – | –
2 | Cc1ncc([N+](=O)[O-])n1CC(C)O (stereo unspecified) | 467 | 462 | 463 | 467 | 465 | 459 | – | – | –
3 | O=C1NC(=O)/C(=C/c2ccc(-c3ccc(F)cc3O)o2)S1 | 447 | 420 | 427 | 430 | 443 | 422 | 445 | 419 | 427
4 | OC1=CC2=C(C(=C1)O)C(=O)\C(=C(/O2)C3=CC(=C(O)C=C3)O)O | 469 | 471 | 469 | 459 | 465 | 469 | 454 | 470 | 454
5 | CN(C)C(=O)C(CCN1CCC(O)(c2ccc(Cl)cc2)CC1)(c1ccccc1)c1ccccc1 | 460 | 444 | 444 | 448 | 445 | 436 | 445 | 436 | 449
6 | CC(C)Cc1ccc(C(C)C(=O)O)cc1 (stereo unspecified) | 442 | 408 | 410 | – | – | – | 371 | 396 | 425
7 | CCOC(=O)/C=C/[C@H](C[C@@H]1CCNC1=O)NC(=O)[C@@H](CC(=O)[C@@H](NC(=O)c1cc(C)on1)C(C)C)Cc1ccc(F)cc1 | 466 | 459 | 450 | 471 | 469 | 440 | 452 | 463 | 454
8 | Nc1ncnc2c1nc(Cl)n2[C@@H]1O[C@H](CO)[C@@H](O)[C@H]1O | 454 | 463 | 452 | – | – | – | 412 | 419 | 406
9 | CC(NCCc1ccc(O)cc1)C(O)c1ccc(O)cc1 (stereo unspecified) | 465 | 469 | 460 | 459 | 446 | 451 | 412 | 452 | 413
10 | CNC(=O)CN1CCC(Oc2cc3c(Nc4cccc(Cl)c4F)ncnc3cc2OC)CC1 | 364 | 356 | 374 | 320 | 302 | 325 | 457 | 469 | 469
11 | CCN(c1ccccc1)c1cc(NC)[n+](C)c(C)n1 | 469 | 457 | 470 | 456 | 471 | 468 | 464 | 466 | 475
12 | CNC(=O)[C@H](CC/1=C/N=C\2/C=C\C\C=C12)NC(=O)[C@H](CC(C)C)CC(=O)NO | 425 | 423 | 423 | 400 | 413 | 418 | 471 | 462 | 465
13 | CCOC1=CC=CC=C1N\2C(=O)C3=C(C=CC=C3)\N=C2C(C)N4CCN(CC4)C(=O)COC5=CC=C(Cl)C=C5 (stereo unspecified) | 303 | 327 | 320 | 304 | 330 | 357 | 323 | 280 | 297
14 | Cc1ccc2c(c1)c1c(n2CCc2ccc(C)nc2)CCN(C)C1 | 459 | 465 | 469 | 447 | 458 | 472 | 472 | 471 | 474
15 | O.O.CCN1CCN(C(=O)N[C@H](C(=O)N[C@H]2[C@@H]3SC\C(=C(/N3C2=O)C(O)=O)CSC4=NN=N[N]4C)C5=CC=C(O)C=C5)C(=O)C1=O | – | – | – | – | – | – | 422 | 425 | 413
16 | O=[S+]([O-])(c1cccc2cnccc12)N1CCCNCC1 | 456 | 476 | 467 | 457 | 471 | 465 | 452 | 463 | 447
17 | C[C@H]1COC/2=C1/C(=O)C(=O)C3=C4CCCC(C)(C)C4=CC=C23 | 468 | 466 | 473 | 447 | 469 | 448 | 434 | 363 | 400
18 | NC(=O)NO | 401 | 393 | 367 | 359 | 340 | 347 | 326 | 362 | 332
19 | CC(C)(O)c1cc2nc(-c3cnc(N)nc3)nc(N3CCOCC3)c2s1 | 406 | 361 | 363 | 343 | 402 | 334 | – | – | –
20 | N#C/C(C(=O)c1ccc(Cl)cc1Cl)=C1/NC(=O)c2ccc(Cl)cc2N1 | 451 | 440 | 463 | 453 | 453 | 456 | 459 | 449 | 454
21 | C#CCN[C@@H]1CCc2ccccc21.CS(=O)(=O)O | 463 | 448 | 434 | 436 | 426 | 459 | 445 | 441 | 438
22 | NC(=O)c1ncn([C@@H]2O[C@H](CO)[C@@H](O)[C@H]2O)c1O | 464 | 463 | 464 | 465 | 468 | 460 | 473 | 474 | 457
23 | CON(C)C(=O)N1/N=C(S[C@@]1(CCCN)C2=CC=CC=C2)/C3=CC(=CC=C3F)F | 183 | 177 | 206 | 242 | 211 | 226 | 162 | 171 | 193
24 | C[C@H]1O[C@H](C[C@H](O)[C@@H]1O)O[C@H]2[C@@H](O)C[C@@H](O[C@@H]2C)O[C@H]3[C@@H](O)C[C@@H](O[C@@H]3C)O[C@H]4CC[C@@]5(C)[C@H](CC[C@@H]6[C@@H]5C[C@@H](O)[C@]7(C)[C@H](CC[C@]67O)C/8=C/C(=O)OC8)C4 | 208 | 242 | 227 | 226 | 280 | 253 | 200 | 250 | 239

Row | SMILES | AUC of viability dose-response curve ([1]; HPLM + 10% dialyzed FBS) | AUC of viability dose-response curve ([1]; RPMI 5 mM glucose + 10% FBS) | AUC of viability dose-response curve [1, 4] | AUC of viability dose-response curve ([2]; HPLM + 10% dialyzed FBS) | AUC of viability dose-response curve ([2]; RPMI 5 mM glucose + 10% FBS) | AUC of viability dose-response curve [2, 4] | AUC of viability dose-response curve ([3]; HPLM + 10% dialyzed FBS) | AUC of viability dose-response curve ([3]; RPMI 5 mM glucose + 10% FBS) | AUC of viability dose-response curve [3, 4]
25 | CNC(=O)Nc1ccc(-c2nc(N3CC4CCC(C3)O4)c3cnn(C4CCC5(CC4)OCCO5)c3n2)cc1 | 389 | 324 | 336 | 359 | 367 | 338 | – | – | –
26 | Cc1c(C)c2c(c(C)c1O)CCC(C)(COc1ccc(CC3SC(=O)NC3=O)cc1)O2 (stereo unspecified) | 477 | 477 | 462 | 466 | 466 | 454 | 467 | 462 | 471
27 | CC/1=C(/N2[C@H](SC1)[C@H](NC(=O)C(N)C3=CC=CC=C3)C2=O)C(O)=O (stereo partly specified) | 461 | 472 | 473 | 457 | 459 | 464 | 437 | 464 | 467
28 | OCCn1cc(-c2cnc3nnn(Cc4ccc5ncccc5c4)c3n2)cn1 | 457 | 455 | 459 | 440 | 471 | 456 | 430 | 389 | 430
29 | COc1cccc2c1[C@]13CCN(CC4CC4)[C@H](C2)[C@]1(OC)CCC(=O)C3 | 451 | 436 | 446 | 469 | 459 | 473 | 422 | 416 | 421
30 | CC(C)C[C@H](NC(=O)[C@@H](O)[C@H](N)Cc1ccccc1)C(=O)O | 463 | 447 | 452 | 451 | 447 | 439 | 453 | 455 | 454
31 | C=CCc1ccc(O)c(-c2ccc(O)c(CC=C)c2)c1 | 251 | 331 | 319 | 419 | 388 | 382 | 377 | 308 | 345
32 | NC/1=N/C(=O)N(/C=N1)[C@@H]2O[C@H](CO)[C@@H](O)[C@H]2O | 422 | 437 | 428 | 430 | 421 | 396 | 406 | 399 | 322
33 | COc1cc(CNC(=O)CCCC/C=C/C(C)C)ccc1O | 287 | 322 | 305 | 380 | 368 | 399 | 343 | 310 | 329
34 | NC(=O)Nc1cc(-c2cccc(F)c2)sc1C(=O)N[C@H]1CCCNC1 | 345 | 325 | 330 | 314 | 335 | 324 | 188 | 196 | 169
35 | OC[C@H]1O[C@@H](Oc2cc(O)cc(/C=C/c3ccc(O)cc3)c2)[C@H](O)[C@@H](O)[C@@H]1O | 449 | 465 | 473 | 397 | 426 | 416 | 451 | 433 | 429
36 | N#C/N=C(\NCCCCCCOc1ccc(Cl)cc1)Nc1ccncc1 | – | – | – | – | – | – | 48.4 | 34.6 | 38
37 | N[S+](=O)([O-])OC[C@@H]1C[C@@H](n2ccc3c(N[C@H]4CCc5ccccc54)ncnc32)C[C@@H]1O | 373 | 352 | 352 | 319 | 300 | 313 | 352 | 346 | 339
38 | C[C@](N)(Cc1ccc(O)c(O)c1)C(=O)O | 427 | 416 | 398 | 391 | 387 | 405 | 395 | 417 | 432
39 | CCOC(=O)Nc1ccc(NCc2ccc(F)cc2)nc1N | 456 | 451 | 464 | 439 | 469 | 469 | 467 | 466 | 461
40 | Cc1cccc(/C=N/Nc2cc(N3CCOCC3)nc(OCCc3ccccn3)n2)c1 | 399 | 373 | 343 | 382 | 352 | 322 | 415 | 396 | 358
41 | CCN1CCCC1CNC(=O)c1cc([S+](N)(=O)[O-])ccc1OC (stereo unspecified) | 476 | 467 | 469 | 467 | 470 | 455 | 453 | 460 | 470
42 | C[C@@H](O)[C@@H]1NC(=O)[C@H](CCCCN)NC(=O)[C@@H](Cc2c[nH]c3ccccc23)NC(=O)[C@H](Cc2ccccc2)NC(=O)[C@@H](NC(=O)[C@H](N)Cc2ccccc2)CSSC[C@@H](C(=O)N[C@H](CO)[C@@H](C)O)NC1=O | 438 | 395 | 391 | – | – | – | 422 | 404 | 380
43 | N=C1N[C@H]2[C@H](CS[C@H]2CCCCC(=O)O)N1 | 464 | 464 | 470 | 456 | 473 | 443 | – | – | –
44 | Cc1c[nH]c(-c2cnc(NCCNc3ccc(C#N)cn3)nc2-c2ccc(Cl)cc2Cl)n1 | 397 | 366 | 379 | 398 | 381 | 396 | – | – | –
45 | CO/N=C(/C(=O)N[C@@H]1C(=O)N2C(C(=O)O)=C(CSC(=O)c3ccco3)CS[C@H]12)c1csc(N)n1 | 472 | 464 | 476 | 413 | 453 | 449 | – | – | –
46 | CN(C)C1=C(Br)C=C(C=C1)C\2NC3=C(\C4=C2C(=O)CC(C)(C)C4)C5=CC=CC=C5C=C3 (stereo unspecified) | 466 | 447 | 459 | – | – | – | 471 | 465 | 470
47 | Cc1onc(-c2ccccc2)c1C(=O)N[C@@H]1C(=O)N2[C@@H]1SC(C)(C)[C@@H]2C(=O)[O-].[Na+] | 440 | 414 | 394 | 379 | 407 | 401 | – | – | –
48 | Cc1nc(Nc2n[nH]c3c2CN(C(=O)N[C@H](CN(C)C)c2ccccc2)C3(C)C)c2sccc2n1 | 317 | 258 | 266 | 262 | 277 | 266 | – | – | –
